# Legend:
# Test in all cases: Anchorage independent soft agar tumor growth assay
# Assay type in all cases: cell-based
# [1] = tested on: CHL-1; conditions: CHL-1 skin melanoma, PTEN Wild-type, Protein
# Procedure: (§1) Cellular Assays—Cell Growth Inhibition Assay in PTEN Wild-Type or PTEN Deficient Tumor Cell Lines Twenty-two Phosphatase and Tensin Homolog (PTEN) wild-type or PTEN deficient tumor cell lines were cultured generally according to instructions supplied by cell culture supplier American Type Culture Collection, Manassas, Va., with 10% fetal bovine serum at 5% CO2 and 37° C. Cells were seeded into either a T-75 or a T-175 flask 3-4 days prior to 96-well assay plating such that the flasks were approximately 70-80% confluent of the time of harvest. Cells were harvested using 0.25% trypsin-EDTA (Invitrogen #25200056). Trypan Blue exclusion staining was used to determine cell number. Viable cells were plated in clear, flat bottom 96-well plates (BD #353075) under anchorage independent conditions at 2,000-10,000 cells per well depending on the cell line. To generate anchorage independent growth conditions, a 5% agar stock solution in water was made and autoclaved to melt and sterilize. From the 5% agar solution, a 0.6% agar/media+10% fetal bovine serum (FBS) solution was made to generate a bottom agar layer in the plates to prevent cell attachment. Seventy five microliters per well of the 0.6% agar-media solution was added to the plates. After solidification, a cell solution of 266,870 to 1, 334,022 cells (depending on the cell line) in 10 ml of 0.3% agar/media+10% FBS was made and 75 μl of the cell/media/agar suspension was added to the plates. After the cell layer solidified, 50 μl of media+10% FBS was added to the top of the cells. A 0.3% Brij 35 (Sigma B4184) solution in media+10% FBS was added to column 12 as a background subtraction control. The cells were incubated overnight at 5% CO2 and 37° C. The next day one plate of cells was processed at the time of compound addition to quantify the starting number of cells (T=0 or T0). […] Three hundred microliters of media was added to the compound dilutions. Ten microliters per well of the serial dilutions was added to the cells and the plates incubated for 6 days at 5% CO2 and 37° C. […] Following the 6-day incubation, 20 μl of Alamar Blue (Invitrogen # DAL1100) was added to the cells, incubated at 5% CO2 and 37° C. for 6 hours and the plates read on a Spectramax (Gemini EM) at 530 nm (excitation) and 590 nm (emission) with the auto cut-off disabled. For analysis of cell growth inhibition dose response curves, the data was plotted as the percent of the DMSO-treated control samples (DMSO samples set to 100%). […] Values from wells containing 0.3% Brij 35 (under anchorage independent conditions) were subtracted from all samples for background correction.
# [2] = tested on: HCC19377; conditions: HCC19377 breast carcinoma, PTEN Loss, No protein
# Procedure: as §1
# [3] = tested on: HCC1395; conditions: HCC1395 breast carcinoma, PTEN p.N212fs*3, No protein
# Procedure: as §1
# [4] = tested on: UACC-62; conditions: UACC-62 skin melanoma, PTEN p.P248fs*5, No protein
# Procedure: as §1
# [5] = tested on: LOXIMVI; conditions: LOXIMVI skin melanoma, PTEN Wild-type, Protein
# Procedure: as §1
# [6] = tested on: SW1783; conditions: SW1783 CNS glioblastoma, PTEN p.R233*, No protein
# Procedure: as §1
# [7] = tested on: U-87MG; conditions: U-87MG CNS glioblastoma, PTEN p.? (splice site mutation), No protein
# Procedure: as §1
# [8] = tested on: HCC1954; conditions: HCC1954 breast carcinoma, PTEN Wild-type, Protein
# Procedure: as §1
# [9] = tested on: H4; conditions: H4 CNS glioblastoma, PTEN Loss, No protein
# Procedure: as §1
# [10] = tested on: SW1088; conditions: SW1088 CNS glioblastoma, PTEN Loss, No protein
# Procedure: as §1
# [11] = tested on: MDA-MB-468; conditions: MDA-MB-468 breast carcinoma, PTEN p.?, L70Fs*7, No protein
# Procedure: as §1
# [12] = tested on: SKOV-3; conditions: SKOV-3 ovary adenocarcinoma, PTEN Wild-type
# Procedure: as §1
# [13] = tested on: HCC70; conditions: HCC70 breast carcinoma, PTEN p.F90fs*9, No protein
# Procedure: as §1
# [14] = tested on: U251; conditions: U251 CNS glioblastoma, PTEN p.E242fs*15, No protein
# Procedure: as §1
# [15] = tested on: BT549; conditions: BT549 breast carcinoma; PTEN p.V275fs*1, No protein; percent of DMSO-treated control
# Procedure: Cellular Assays—Cell Growth Inhibition Assay in PTEN Wild-Type or PTEN Deficient Tumor Cell Lines Twenty-two Phosphatase and Tensin Homolog (PTEN) wild-type or PTEN deficient tumor cell lines were cultured generally according to instructions supplied by cell culture supplier American Type Culture Collection, Manassas, Va., with 10% fetal bovine serum at 5% CO2 and 37° C. Cells were seeded into either a T-75 or a T-175 flask 3-4 days prior to 96-well assay plating such that the flasks were approximately 70-80% confluent of the time of harvest. Cells were harvested using 0.25% trypsin-EDTA (Invitrogen #25200056). Trypan Blue exclusion staining was used to determine cell number. Viable cells were plated in clear, flat bottom 96-well plates (BD #353075) under anchorage independent conditions at 2,000-10,000 cells per well depending on the cell line. To generate anchorage independent growth conditions, a 5% agar stock solution in water was made and autoclaved to melt and sterilize. […] The next day one plate of cells was processed at the time of compound addition to quantify the starting number of cells (T=0 or T0). […] Following the 6-day incubation, 20 μl of Alamar Blue (Invitrogen # DAL1100) was added to the cells, incubated at 5% CO2 and 37° C. for 6 hours and the plates read on a Spectramax (Gemini EM) at 530 nm (excitation) and 590 nm (emission) with the auto cut-off disabled. […]
# [16] = percent of DMSO-treated control
# [17] = Homo sapiens, 144 h, 6-day incubation, Alamar Blue, read-out: Compound EC50 (nM) ± StDev
# [18] = 144 h, 6-day incubation, Alamar Blue, read-out: Compound EC50 (nM) ± StDev
compound,measurement,setting,value
"Cc1c(Cn2c(C)nc3c(C(=O)O)cc(N4CCOCC4)cc32)cccc1C(F)(F)F [Example 31, 2-methyl-1-{[2-methyl-3-(trifluoromethyl)phenol]methyl}-6-(4-morpholinyl)-1H-benzimidazole-4-carboxylic acid]",Compound Ymin ± StDev,[1]; [16],82 ± 2
same,EC50,[1]; [17],14 ± 6 nM
same,EC50,[2]; [18],24 ± 8 nM
same,Compound Ymin ± StDev,[2]; [16],67 ± 8
same,Compound Ymin ± StDev,[3]; [16],26 ± 9
same,EC50,[3]; [17],114 ± 53 nM
same,EC50,[4]; [17],23 ± 27 nM
same,Compound Ymin ± StDev,[4]; [16],76 ± 18
same,EC50,"[5]; Homo sapiens, LOX IMVI, 144 h, 6-day incubation, Alamar Blue, read-out: Compound EC50 (nM) ± StDev",> 30700 nM
same,Compound Ymin ± StDev,[5]; [16],>90
same,EC50,[6]; [17],10 ± 3 nM
same,Compound Ymin ± StDev,[6]; [16],69 ± 4
same,EC50,[7]; [17],2980 ± 2770 nM
same,Compound Ymin ± StDev,[7]; [16],34 ± 18
same,Compound Ymin ± StDev,[8]; [16],>80
same,EC50,[8]; [17],> 30700 nM
same,EC50,[9]; [18],12 ± 8 nM
same,Compound Ymin ± StDev,[9]; [16],55 ± 18
same,EC50,[10]; [17],12 ± 6 nM
same,Compound Ymin ± StDev,[10]; [16],36 ± 8
same,EC50,[11]; [17],89 ± 55 nM
same,Compound Ymin ± StDev,[11]; [16],44 ± 6
same,EC50,"[12]; Homo sapiens, SK-OV-3, 144 h, 6-day incubation, Alamar Blue, read-out: Compound EC50 (nM) ± StDev",> 30700 nM
same,Compound Ymin ± StDev,[12]; [16],>80
same,Compound Ymin ± StDev,[13]; [16],27 ± 8
same,EC50,[13]; [17],53 ± 21 nM
same,EC50,"[14]; Homo sapiens, U-251, 144 h, 6-day incubation, Alamar Blue, read-out: Compound EC50 (nM) ± StDev",19000 ± 8620 nM
same,Compound Ymin ± StDev,[14]; [16],80 ± 17
same,Compound Ymin ± StDev,[15],52 ± 7

# From US10660898B2, “Benzimidazole derivatives as PI3 kinase inhibitors” (GLAXOSMITHKLINE LLC, priority 2010, dated 2020)
